Results: patent US10294202B2, “Pyrrolidinones as herbicides” (FMC Corporation, priority 2013, dated 2019)
Where two headings read alike, the source gives them in different places.

Assays:
wheat (winter wheat) = experiment: Test C pre-/postemergence herbicide test; format: in vivo, Triticum aestivum
In short: (§1)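 Pre- and postemergence greenhouse screen. Preemergence treatment went onto freshly planted seeds in loam–sand soil; postemergence treatment went onto plants 2 to 18 cm tall at the 1- to 4-leaf stage in sphagnum peat/vermiculite medium. Scoring at 13 to 15 days used a 0–100 control scale.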

oat, wild = experiment: Test C pre-/postemergence herbicide test; format: in vivo, Avena fatua
In short: as §1

barnyardgrass = experiment: Test A pre-/postemergence herbicide test; format: in vivo, Echinochloa crus-galli; conditions: for Barnyardgrass plant response rating: Preemergence, visual rating on 0 to 100 scale (0 no effect, 100 complete control); for pest or weed control at 125 g/ha / pest or weed control at 500 g/ha: Echinochloa crus-galli, 240 h, read-out: Plant response rating, Barnyardgrass
In short: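 Visual injury ratings, 0 = no effect, 100 = complete control, taken ~10 days after treatment against untreated greenhouse controls. Preemergence: directed soil spray onto seeded loam/sand pots. Postemergence: spray onto plants at one- to two-leaf stage, 2–10 cm tall.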

crabgrass, large = experiment: Test C pre-/postemergence herbicide test; format: in vivo, Digitaria sanguinalis
In short: as §1

soybean = experiment: Test C pre-/postemergence herbicide test; format: in vivo, Glycine max; conditions: for Soybean plant response rating: scale 0 to 100, 0 is no effect and 100 is complete control
In short: as §1

blackgrass = experiment: Test C pre-/postemergence herbicide test; format: in vivo, Alopecurus myosuroides
In short: as §1

corn = experiment: Test C pre-/postemergence herbicide test; format: in vivo, Zea mays
In short: as §1

velvetleaf = experiment: Test C pre-/postemergence herbicide test; format: in vivo, Abutilon theophrasti
In short: as §1

lambsquarters = experiment: Test C pre-/postemergence herbicide test; format: in vivo, Chenopodium album
In short: as §1

[1] = Postemergence, 31 g ai/ha, scale 0 (no effect) to 100 (complete control)
[2] = Postemergence, 62 g ai/ha, scale 0 to 100 (0 no effect, 100 complete control)
[3] = Postemergence, 125 g ai/ha, scale 0 to 100 (0 no effect, 100 complete control)
[4] = Postemergence, 250 g ai/ha, scale 0 to 100 (0 no effect, 100 complete control)
[5] = Preemergence, 31 g ai/ha, scale 0 to 100, 0 is no effect and 100 is complete control
[6] = Preemergence, 62 g ai/ha, scale 0 to 100
[7] = Preemergence, 125 g ai/ha, scale 0 to 100 (0 no effect, 100 complete control)
[8] = Postemergence, 31 g ai/ha, scale 0 to 100 (0 no effect, 100 complete control)
[9] = Postemergence, 62 g ai/ha, scale 0 (no effect) to 100 (complete control)
[10] = Preemergence, 62 g ai/ha, scale 0 to 100 (0 no effect, 100 complete control)
[11] = Preemergence, 31 g ai/ha, scale 0 to 100 (0 no effect, 100 complete control)
[12] = Preemergence, 250 g ai/ha, scale 0 to 100 (0 no effect, 100 complete control)

O=C1NCC(c2ccc(F)c(F)c2)C1C(=O)Nc1cccc(F)c1F (racemic) [Compound 101]
0: Plant response rating, Wheat (wheat (winter wheat); [1]) | Plant response rating, Wheat (wheat (winter wheat); [2]) | Plant response rating, Wheat (wheat (winter wheat); [3]) | Plant response rating, Wheat (wheat (winter wheat); [4]) | Wheat plant response rating (wheat (winter wheat); [5]) | Plant response rating, Oat, Wild (oat, wild; [1]) | Plant response rating, Oat, Wild (oat, wild; [2]) | Plant response rating, Oat, Wild (oat, wild; [3]) | Plant response rating, Oat, Wild (oat, wild; [4]) | Plant response rating, Soybean (soybean; [1]) | Plant response rating, Soybean (soybean; [2]) | Soybean plant response rating (soybean; Preemergence, 31 g ai/ha) | Plant response rating, Soybean (soybean; [6]) | Plant response rating, Soybean (soybean; [7]) | Plant response rating, Blackgrass (blackgrass; [1]) | Plant response rating, Blackgrass (blackgrass; [2]) | Blackgrass plant response rating (blackgrass; [5]) | Plant response rating, Corn (corn; [1]) | Plant response rating, Corn (corn; [2]) | Plant response rating, Corn (corn; [3]) | Plant response rating, Corn (corn; [4]) | Corn plant response rating (corn; [5]) | Plant response rating, Corn (corn; [6]) | Plant response rating, Velvetleaf (velvetleaf; [1]) | Plant response rating, Velvetleaf (velvetleaf; [2]) | Plant response rating, Velvetleaf (velvetleaf; [6])
30: Plant response rating, Velvetleaf (velvetleaf; [4]) | Lambsquarters plant response rating (lambsquarters; [5])
50: Plant response rating, Wheat (wheat (winter wheat); [7]) | Plant response rating, Crabgrass, Large (crabgrass, large; [2]) | Plant response rating, Blackgrass (blackgrass; [6])
10: Plant response rating (scale of 0 to 100), Soybean (soybean; Preemergence, 250 g ai/ha) | Plant response rating, Blackgrass (blackgrass; [3]) | Plant response rating, Velvetleaf (velvetleaf; [3]) | Plant response rating, Lambsquarters (lambsquarters; [1])
15: Velvetleaf plant response rating (velvetleaf; [5])
98: Plant response rating, Crabgrass, Large (crabgrass, large; [6]) | Plant response rating, Crabgrass, Large (crabgrass, large; [7])
5: Plant response rating, Soybean (soybean; [3]) | Plant response rating, Soybean (soybean; [4]) | Plant response rating, Blackgrass (blackgrass; [4]) | Plant response rating, Corn (corn; [7]) | Plant response rating, Velvetleaf (velvetleaf; [7])
25: Plant response rating, Crabgrass, Large (crabgrass, large; [1]) | Plant response rating, Lambsquarters (lambsquarters; [2])
20: Plant response rating, Wheat (wheat (winter wheat); [6])
70: Plant response rating, Blackgrass (blackgrass; [7]) | Plant response rating (scale of 0 to 100), Velvetleaf (velvetleaf; Preemergence, 250 g ai/ha) | Plant response rating, Lambsquarters (lambsquarters; [4])
85: Plant response rating, Crabgrass, Large (crabgrass, large; [4]) | Plant response rating, Lambsquarters (lambsquarters; [6])
55: Plant response rating (scale of 0 to 100), Wheat (wheat (winter wheat); Preemergence, 250 g ai/ha)
100: Plant response rating (scale of 0 to 100), Crabgrass, Large (crabgrass, large; Preemergence, 250 g ai/ha)
65: Plant response rating (scale of 0 to 100), Corn (corn; Preemergence, 250 g ai/ha)
90: Plant response rating, Barnyardgrass (barnyardgrass; Postemergence, 500 g ai/ha, 0 to 100 scale (0 no effect, 100 complete control)) | Barnyardgrass plant response rating (barnyardgrass; 125 g ai/ha) | Plant response rating, Barnyardgrass (barnyardgrass; preemergence, 500 g ai/ha, 0 to 100 scale (0 no effect, 100 complete control)) | Plant response rating (scale of 0 to 100), Blackgrass (blackgrass; Preemergence, 250 g ai/ha) | Plant response rating, Lambsquarters (lambsquarters; [7]) | Plant response rating (scale of 0 to 100), Lambsquarters (lambsquarters; Preemergence, 250 g ai/ha)
95: Crabgrass, Large plant response rating (crabgrass, large; [5])
35: Plant response rating, Lambsquarters (lambsquarters; [3])
80: Plant response rating, Barnyardgrass (barnyardgrass; Postemergence, 125 g ai/ha, 0 to 100 scale, 0 no effect, 100 complete control) | Plant response rating, Crabgrass, Large (crabgrass, large; [3])

O=C1NC[C@H](c2cccc(C(F)(F)F)c2)[C@H]1C(=O)Nc1ccccc1F [Compound 204, (3R,4S)—N-(2-fluorophenyl)-2-oxo-4-[3-(trifluoromethyl)phenyl]-3-pyrrolidinecarboxamide]
10: Plant response rating (scale of 0 to 100), Soybean (soybean; Preemergence, 250 g ai/ha) | Plant response rating, Velvetleaf (velvetleaf; [4])
0: Plant response rating, Wheat (wheat (winter wheat); [8]) | Plant response rating, Wheat (wheat (winter wheat); [9]) | Plant response rating, Wheat (wheat (winter wheat); [3]) | Plant response rating, Wheat (wheat (winter wheat); [4]) | Wheat plant response rating (wheat (winter wheat); [5]) | Plant response rating, Oat, Wild (oat, wild; [8]) | Plant response rating, Oat, Wild (oat, wild; [9]) | Plant response rating, Oat, Wild (oat, wild; [3]) | Plant response rating, Crabgrass, Large (crabgrass, large; [8]) | Plant response rating, Soybean (soybean; [8]) | Plant response rating, Soybean (soybean; [9]) | Plant response rating, Soybean (soybean; [3]) | Plant response rating, Blackgrass (blackgrass; [8]) | Plant response rating, Blackgrass (blackgrass; [9]) | Plant response rating, Blackgrass (blackgrass; [3]) | Plant response rating, Corn (corn; [8]) | Plant response rating, Corn (corn; [9]) | Plant response rating, Corn (corn; [3]) | Plant response rating, Velvetleaf (velvetleaf; [8]) | Plant response rating, Velvetleaf (velvetleaf; [9]) | Plant response rating, Velvetleaf (velvetleaf; [3]) | Velvetleaf plant response rating (velvetleaf; [5]) | Velvetleaf plant response rating (velvetleaf; [10]) | Plant response rating, Velvetleaf (velvetleaf; [7])
5: Plant response rating, Oat, Wild (oat, wild; [4]) | Plant response rating, Soybean (soybean; [4]) | Soybean plant response rating (soybean; Preemergence, 31 g ai/ha) | Plant response rating, Soybean (soybean; [7])
90: Plant response rating (scale of 0 to 100), Wheat (wheat (winter wheat); Preemergence, 250 g ai/ha) | Barnyardgrass plant response rating (0 to 100 scale, 0 is no effect, 100 is complete control) (barnyardgrass; Postemergence, 500 g ai/ha) | Crabgrass, Large plant response rating (crabgrass, large; [5]) | Crabgrass, Large plant response rating (crabgrass, large; [10]) | Blackgrass plant response rating (blackgrass; [5]) | Plant response rating, Blackgrass (blackgrass; [6]) | Plant response rating, Blackgrass (blackgrass; [7]) | Plant response rating (scale of 0 to 100), Blackgrass (blackgrass; Preemergence, 250 g ai/ha)
55: Plant response rating, Corn (corn; [7])
50: Plant response rating, Crabgrass, Large (crabgrass, large; [9]) | Plant response rating, Blackgrass (blackgrass; [4])
30: Plant response rating (scale of 0 to 100), Velvetleaf (velvetleaf; Preemergence, 250 g ai/ha) | Plant response rating, Lambsquarters (lambsquarters; [4])
25: Corn plant response rating (corn; [10])
75: Plant response rating (scale of 0 to 100), Corn (corn; Preemergence, 250 g ai/ha) | Plant response rating, Lambsquarters (lambsquarters; [3]) | Plant response rating, Lambsquarters (lambsquarters; [7])
100: Plant response rating, Crabgrass, Large (crabgrass, large; [7]) | Lambsquarters plant response rating (lambsquarters; [5]) | Lambsquarters plant response rating (lambsquarters; [10]) | Plant response rating (scale of 0 to 100), Lambsquarters (lambsquarters; Preemergence, 250 g ai/ha)
80: Plant response rating, Wheat (wheat (winter wheat); [7]) | Plant response rating, Crabgrass, Large (crabgrass, large; [4])
90%: pest or weed control at 125 g/ha (barnyardgrass; post-emergence, Postemergence, 125 g ai/ha, 0 to 100 scale, 0 is no effect, 100 is complete control) | pest or weed control at 125 g/ha (barnyardgrass; pre-emergence, 125 g ai/ha, visual rating, 0 to 100 scale, 0 no effect, 100 complete control, approximately 10 days) | pest or weed control at 500 g/ha (barnyardgrass; pre-emergence, preemergence, 500 g ai/ha, 0 to 100 scale, 0 is no effect and 100 is complete control)
70: Wheat plant response rating (wheat (winter wheat); [10]) | Plant response rating, Crabgrass, Large (crabgrass, large; [3])
40: Plant response rating, Corn (corn; [4])
35: Plant response rating, Lambsquarters (lambsquarters; [8])
95: Plant response rating (scale of 0 to 100), Crabgrass, Large (crabgrass, large; Preemergence, 250 g ai/ha)
65: Plant response rating, Lambsquarters (lambsquarters; [9])
45: Corn plant response rating (corn; [5])

O=C1NCCC1C(=O)N(c1ccc(F)c(F)c1)c1ccccc1F (stereo not drawn) [Compound 5, N-(3,4-difluorophenyl)-N-(2-fluorophenyl)-2-oxo-3-pyrrolidinecarboxamide]
95: Plant response rating, Lambsquarters (lambsquarters; [6]) | Plant response rating, Lambsquarters (lambsquarters; [7])
90%: pest or weed control at 500 g/ha (barnyardgrass; post-emergence, Postemergence, 500 g ai/ha, 0 to 100 scale (0 no effect, 100 complete control)) | pest or weed control at 500 g/ha (barnyardgrass; pre-emergence, preemergence, 500 g ai/ha, 0 to 100 scale (0 no effect, 100 complete control))
60%: pest or weed control at 125 g/ha (barnyardgrass; post-emergence, Postemergence, 125 g ai/ha, 0 to 100 scale, 0 no effect, 100 complete control)
70: Barnyardgrass plant response rating (barnyardgrass; 125 g ai/ha)
100: Plant response rating, Crabgrass, Large (crabgrass, large; [6]) | Plant response rating, Crabgrass, Large (crabgrass, large; [7]) | Crabgrass, Large plant response rating (crabgrass, large; [11]) | Plant response rating, Crabgrass, Large (crabgrass, large; [12])
5: Plant response rating, Wheat (wheat (winter wheat); [7])
30: Plant response rating, Blackgrass (blackgrass; [12])
0: Plant response rating, Wheat (wheat (winter wheat); [6]) | Plant response rating, Oat, Wild (oat, wild; [6]) | Plant response rating, Oat, Wild (oat, wild; [7]) | Plant response rating, Soybean (soybean; [6]) | Plant response rating, Soybean (soybean; [7]) | Plant response rating, Blackgrass (blackgrass; [6]) | Plant response rating, Blackgrass (blackgrass; [7]) | Blackgrass plant response rating (blackgrass; [11]) | Plant response rating, Corn (corn; [6]) | Plant response rating, Corn (corn; [7]) | Corn plant response rating (corn; [11]) | Plant response rating, Corn (corn; [12]) | Plant response rating, Velvetleaf (velvetleaf; [6]) | Plant response rating, Velvetleaf (velvetleaf; [7])
